logP and chromatographic logP data for 48 compounds are collected here from patent US20070179295A1, “Triazolopyrimidines” (priority 2003, published 2007).

A word on the logP: it is the decadic logarithm of the partition coefficient of the neutral form, usually between octanol and water. A lower logP goes with a more hydrophilic compound. One may read the chromatographic logP as lipophilicity estimated from chromatographic retention. A low value points to a more hydrophilic compound.

The series in a line: logP determination through HPLC (EEC directive 79/831 Annex V. A8, gradient method, acetonitrile/0.1% aqueous phosphoric acid). In kind it is physicochemical. Conditions: for chromatographic logP: HPLC.
The mark [1] stands for this setting: Table 1, compounds of formula (I), HPLC gradient method, acetonitrile/0.1% aqueous phosphoric acid.
[2] abbreviates: Table 2, precursors of formula (II).
Where [3] appears, read: Table 3, precursors of formula (IV).

Under setting [1], `FC(F)(F)CNc1c(-c2ccsc2)c(Cl)nc2nc(C3CC3)nn12` [Example 60] returned a logP of 2.87.
On the same count and under the same terms, the result for `CC(C)CC(C)Nc1c(-c2ccsc2)c(Cl)nc2nc(C3CC3)nn12` (stereo not drawn) [Example 61] reads 4.14; that for `CC(C)CN(C)c1c(-c2ccsc2)c(Cl)nc2nc(C3CC3)nn12` [Example 63], 3.90; that for `COCCN(C)c1c(-c2ccsc2)c(Cl)nc2nc(C3CC3)nn12` [Example 64], 2.91.
`Clc1nc2nc(C3CC3)nn2c(N2CCCC2)c1-c1ccsc1` [Example 65] had a logP under setting [1] of 3.18.
Still for that read-out and setting: under `CCCN(CC1CC1)c1c(-c2ccsc2)c(Cl)nc2nc(C3CC3)nn12` [Example 66] stands 4.32.
The same measure, in the same setting: under `CC1CN(c2c(-c3ccsc3)c(Cl)nc3nc(C4CC4)nn23)CC(C)O1` (stereo not drawn) [Example 67] stands 3.26; under `CC(C)CC(C)Nc1c(-c2cc(Cl)sc2Cl)c(Cl)nc2nc(C3CC3)nn12` (stereo not drawn) [Example 68], 5.42; under `CCC(C)Nc1c(-c2cc(Cl)sc2Cl)c(Cl)nc2nc(C3CC3)nn12` (stereo not drawn) [Example 69], 4.56.
In turn, `Clc1cc(-c2c(Cl)nc3nc(C4CC4)nn3c2NC2CCCC2)c(Cl)s1` [Example 70] registered a logP under setting [1] of 4.82.
On the same count and under the same terms, the result for `CC(C)Nc1c(-c2ccsc2)c(Cl)nc2nc(C3CC3)nn12` [Example 72] reads 3.07; that for `Clc1nc2nc(C3CC3)nn2c(N2CCOCC2)c1-c1ccsc1` [Example 73], 2.51; that for `Clc1nc2nc(C3CC3)nn2c(NC2CCCC2)c1-c1ccsc1` [Example 74], 3.63.
Still for that read-out and setting: the result for `C=C(C)CN(C)c1c(-c2ccsc2)c(Cl)nc2nc(C3CC3)nn12` [Example 75] reads 3.81.
The compound `COCCNc1c(-c2cc(Cl)sc2Cl)c(Cl)nc2nc(C3CC3)nn12` [Example 76] yielded a logP under setting [1] of 3.55.
Same read-out and setting: under `CC(C)(C)CNc1c(-c2ccsc2)c(Cl)nc2nc(C3CC3)nn12` [Example 77] stands 3.85; under `CCC(C)Nc1c(-c2ccsc2)c(Cl)nc2nc(C3CC3)nn12` (stereo not drawn) [Example 78], 3.41; under `CCCN(CC1CC1)c1c(-c2cc(Cl)sc2Cl)c(Cl)nc2nc(C3CC3)nn12` [Example 79], 5.71.
Same read-out and setting: the result for `CC(C)CN(C)c1c(-c2cc(Cl)sc2Cl)c(Cl)nc2nc(C3CC3)nn12` [Example 81] reads 5.25; that for `Clc1cc(-c2c(Cl)nc3nc(C4CC4)nn3c2N2CCCC2)c(Cl)s1` [Example 82], 4.37.
The same measure, in the same setting: under `Clc1cc(-c2c(Cl)nc3nc(C4CC4)nn3c2N2CCCCCC2)c(Cl)s1` [Example 85] stands 5.14; under `Clc1cc(-c2c(Cl)nc3nc(C4CC4)nn3c2N2CCOCC2)c(Cl)s1` [Example 89], 3.68; under `CC(Nc1c(-c2scnc2Cl)c(Cl)nc2nc(C3CC3)nn12)C(F)(F)F` (stereo not drawn) [Example 91], 2.94.
Turning to `CC(C)C(C)Nc1c(-c2scnc2Cl)c(Cl)nc2nc(C3CC3)nn12` (stereo not drawn) [Example 92], the logP under setting [1] worked out at 3.23.
Under setting [1], `CC1CCN(c2c(-c3ncncc3Cl)c(Cl)nc3nc(C4CC4)nn23)CC1` [Example 94] gave a logP of 3.30.
With `CC1CCCCN1c1c(-c2ccsc2)c(Cl)nc2nc(C3CC3)nn12` (stereo not drawn) [Example 95], the logP under setting [1] is reported as 4.07.
The same measure, in the same setting: under `CC(C)c1nc2nc(Cl)c(-c3ncncc3F)c(NC(C)C(C)(C)C)n2n1` (stereo not drawn) [Example 100] stands 3.47; under `CC(C)c1nc2nc(Cl)c(-c3ncncc3F)c(NC(C)C(C)C)n2n1` (stereo not drawn) [Example 101], 3.02.
Still for that read-out and setting: the result for `CC(C)c1nc2nc(Cl)c(-c3ncncc3F)c(NC(C)C(F)(F)F)n2n1` (stereo not drawn) [Example 102] reads 2.78; that for `CC(Nc1c(-c2ncncc2F)c(Cl)nc2nc(C3CC3)nn12)C(C)(C)C` (stereo not drawn) [Example 103], 3.18.
Still for that read-out and setting: under `CC(C)C(C)Nc1c(-c2ncncc2F)c(Cl)nc2nc(C3CC3)nn12` (stereo not drawn) [Example 104] stands 2.79; under `CC(Nc1c(-c2ncncc2F)c(Cl)nc2nc(C3CC3)nn12)C(F)(F)F` (stereo not drawn) [Example 105], 2.57.
As to `CC1CCN(c2c(-c3ncncc3F)c(Cl)nc3nc(C4CC4)nn23)CC1` [Example 106], under setting [1], the logP is given as 3.02.
Same read-out and setting: the result for `Cc1nc2nc(Cl)c(-c3ncncc3F)c(NC(C)C(C)(C)C)n2n1` (stereo not drawn) [Example 107] reads 2.54; that for `Cc1nc2nc(Cl)c(-c3ncncc3F)c(NC(C)C(C)C)n2n1` (stereo not drawn) [Example 108], 2.21.
As to `Cc1nc2nc(Cl)c(-c3ncncc3F)c(NC(C)C(F)(F)F)n2n1` (stereo not drawn) [Example 109], the logP under setting [1] is given as 2.03.
Regarding `CC(C)c1nc2nc(Cl)c(-c3ncc(C(F)(F)F)cc3Cl)c(NC(C)C(F)(F)F)n2n1` (stereo not drawn) [Example 111], the logP under setting [1] stood at 3.95.
On the same count and under the same terms, the result for `CC(C)c1nc2nc(Cl)c(-c3ncc(C(F)(F)F)cc3Cl)c(NC(C)C(C)C)n2n1` (stereo not drawn) [Example 112] reads 4.32.
`FC(F)(F)c1cccnc1-c1c(Cl)nc2nc(C3CC3)nn2c1Cl` [Example 114] showed a chromatographic logP of 2.73.
The same measure, in the same setting: the result for `Cc1nc2nc(Cl)c(-c3ncncc3Cl)c(Cl)n2n1` [Example 115, 5,7-dichloro-6-(5-chloro-4-pyrimidinyl)-2-methyl[1,2,4]-triazolo[1,5-a]pyrimidine] reads 1.58.
Compound `Clc1cncnc1-c1c(Cl)nc2nc(C3CC3)nn2c1Cl` [Example 116] returned a logP under setting [2] of 2.23.
Same read-out and setting: under `Cc1nc2nc(Cl)c(-c3cncnc3C(F)(F)F)c(Cl)n2n1` [Example 117] stands 2.10.
On the same count and under the same terms, the result for `Clc1nc2nc(C3CC3)nn2c(Cl)c1-c1ccccn1` [Example 118] reads 1.88; that for `O=[N+]([O-])c1cccc(-c2c(Cl)nc3nc(C4CC4)nn3c2Cl)n1` [Example 119], 2.91.
The same measure, in the same setting: the result for `Cc1nc2nc(Cl)c(-c3ncccc3[N+](=O)[O-])c(Cl)n2n1` [Example 120] reads 1.68.
`Oc1nc2nc(C3CC3)nn2c(O)c1-c1ncccc1C(F)(F)F` [Example 124, 6-(3-trifluoromethyl-pyridin-2-yl)-2-cyclopropyl[1,2,4]triazolo[1,5-a]-pyrimidin-5,7-diol] came in with a chromatographic logP of 0.47.
`Cc1nc2nc(O)c(-c3ncccc3C(F)(F)F)c(O)n2n1` [Example 126] displayed a logP under setting [3] of −0.03.
The same measure, in the same setting: the result for `Oc1nc2nc(C3CC3)nn2c(O)c1-c1ncncc1Cl` [Example 127] reads −0.07.
